Test results taken from patent US12497408B2, “Tetracyclic compounds and methods for the treatment of Zika virus infection” (priority 2021, dated 2025).

These compounds were tested on ZIKV (assay: ZIKV reporter virus-based antiviral screening on Huh7 cells). Settings: Huh7 cells infected with recombinant luciferase reporter ZIKV (MOI about 0.1), 48 hrs, luciferase signal.
Type: cell-based, Zika virus
Method in brief: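 Huh7 cells in 2% FBS assay medium infected at MOI about 0.1 with Renilla or Nano luciferase ZIKV premixed with nine-point compound dilutions, 48 hrs at 37° C. Luciferase signal normalized to DMSO controls as 100%; viability optionally by CellTiter-Glo with Rlu virus.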
`COC(=O)N[C@H](C(=O)N1[C@H](c2nc(Cl)c(-c3cc4c5c(c3)OCc3cc(-c6[nH]c([C@@H]7C[C@@H]8C[C@@H]8N7C(=O)[C@@H](NC(=O)OC)C(C)C)nc6Cl)cc(c3-5)OC4)[nH]2)C[C@@H]2C[C@@H]21)C(C)C` [Compound 11, dimethyl ((2S,2′S)-((1S,1′S,3S,3′S,5S,5′S)-((5,10-dihydrochromeno[5,4,3-cde]chromene-2,7-diyl)bis(4-chloro-1H-imidazole-5,2-diyl))bis(2-azabicyclo[3.1.0]hexane-3,2-diyl))bis(3-methyl-1-oxobutane-1,2-diyl))dicarbamate] showed an EC50 of 9.3 nM.

Same assay, conditions: Huh7 cells infected with recombinant luciferase reporter ZIKV (MOI about 0.1), 48 hrs, luciferase signal; read-out: EC50
Compound `CC[C@H](C)[C@H](NC(=O)OC)C(=O)N1C[C@@H](C)C[C@H]1c1nc(Cl)c(-c2cc3c4c(c2)OCc2cc(-c5[nH]c([C@@H]6C[C@H](C)CN6C(=O)[C@@H](NC(=O)OC)[C@@H](C)CC)nc5C(C)C)cc(c2-4)OC3)[nH]1` [Compound 73, methyl ((2S,3S)-1-((2S,4S)-2-(5-(7-(4-chloro-2-((2S,4S)-1-((methoxycarbonyl)-1-isoleucyl)-4-methylpyrrolidin-2-yl)-1H-imidazol-5-yl)-5,10-dihydrochromeno[5,4,3-cde]chromen-2-yl)-4-isopropyl-1H-imidazol-2-yl)-4-methylpyrrolidin-1-yl)-3-methyl-1-oxopentan-2-yl)carbamate] has an EC50 of 3.2 nM.

Same assay, conditions: Zika virus, Huh-7, 48 h, Huh7 cells infected with recombinant luciferase reporter ZIKV (MOI about 0.1), luciferase signal
`COC(=O)N[C@H](C(=O)N1[C@@H]2C[C@@H]2C[C@H]1c1nc(Cl)c(-c2cc3c4c(c2)OCc2cc(-c5[nH]c([C@@H]6C[C@H]7C[C@H]7N6C(=O)[C@@H](NC(=O)OC)C(C)C)nc5Cl)cc(c2-4)OC3)[nH]1)C(C)C` [Compound 46, dimethyl ((2S,2′S)-((1R,1′R,3S,3′S,5R,5′R)-((5,10-dihydrochromeno[5,4,3-cde]chromene-2,7-diyl)bis(4-chloro-1H-imidazole-5,2-diyl))bis(2-azabicyclo[3.1.0]hexane-3,2-diyl))bis(3-methyl-1-oxobutane-1,2-diyl))dicarbamate] gave an EC50 of 5 nM. For `COC(=O)N[C@H](C(=O)N1CCC[C@H]1c1nc(C(C)(C)C)c(-c2cc3c4c(c2)OCc2cc(-c5[nH]c([C@@H]6CCCN6C(=O)[C@@H](NC(=O)OC)C(C)C)nc5C(C)(C)C)cc(c2-4)OC3)[nH]1)C(C)C` [Compound 76, Dimethyl ((2S,2′S)-((2S,2′S)-((5,10-dihydrochromeno[5,4,3-cde]chromene-2,7-diyl)bis(4-(tert-butyl)-1H-imidazole-5,2-diyl))bis(pyrrolidine-2,1-diyl))bis(3-methyl-1-oxobutane-1,2-diyl))dicarbamate], the EC50 was 496 nM. With `COC(=O)N[C@H](C(=O)N1CCC[C@H]1c1nc(C(C)C)c(-c2cc3c4c(c2)OCc2cc(-c5[nH]c([C@@H]6CCCN6C(=O)[C@@H](NC(=O)OC)C(C)C)nc5C(C)C)cc(c2-4)OC3)[nH]1)C(C)C` [Compound 19, dimethyl ((2S,2′S)-((2S,2′S)-((5,10-dihydrochromeno[5,4,3-cde]chromene-2,7-diyl)bis(4-isopropyl-1H-imidazole-5,2-diyl))bis(pyrrolidine-2,1-diyl))bis(3-methyl-1-oxobutane-1,2-diyl))dicarbamate] the EC50 was 15.8 nM. For `COC(=O)N[C@H](C(=O)N1[C@H](c2nc(Cl)c(-c3cc4c5c(c3)OCc3cc(-c6[nH]c([C@@H]7C[C@@H]8CCC[C@@H]8N7C(=O)[C@@H](NC(=O)OC)C(C)C)nc6Cl)cc(c3-5)OC4)[nH]2)C[C@@H]2CCC[C@@H]21)C(C)C` [Compound 29, dimethyl ((2S,2′S)-((2S,2′S,3aS,3a′S,6aS,6a′S)-((5,10-dihydrochromeno[5,4,3-cde]chromene-2,7-diyl)bis(4-chloro-1H-imidazole-5,2-diyl))bis(hexahydrocyclopenta[b]pyrrole-2,1(2H)-diyl))bis(3-methyl-1-oxobutane-1,2-diyl))dicarbamate], the EC50 was 1.8 nM. For `COC(=O)N[C@H](C(=O)N1C[C@@H](C)C[C@H]1c1nc(Cl)c(-c2cc3c4c(c2)OCc2cc(-c5[nH]c([C@@H]6C[C@H](C)CN6C(=O)[C@@H](NC(=O)OC)[C@@H](C)OC)nc5Cl)cc(c2-4)OC3)[nH]1)[C@@H](C)OC` [Compound 47, dimethyl ((2S,2′S,3R,3′R)-((3S,3′S,5S,5′S)-((5,10-dihydrochromeno[5,4,3-cde]chromene-2,7-diyl)bis(4-chloro-1H-imidazole-5,2-diyl))bis(3-methylpyrrolidine-5,1-diyl))bis(3-methoxy-1-oxobutane-1,2-diyl))dicarbamate], the EC50 was 16.9 nM. `COC(=O)N[C@H](C(=O)N1C[C@H](C)C[C@H]1c1nc(Cl)c(-c2cc3c4c(c2)OCc2cc(-c5[nH]c([C@@H]6C[C@@H](C)CN6C(=O)[C@@H](NC(=O)OC)C(C)(C)C(F)(F)F)nc5Cl)cc(c2-4)OC3)[nH]1)C(C)(C)C(F)(F)F` [Compound 3, dimethyl ((2S,2′S)-((3R,3′R,5S,5′S)-((5,10-dihydrochromeno[5,4,3-cde]chromene-2,7-diyl)bis(4-chloro-1H-imidazole-5,2-diyl))bis(3-methylpyrrolidine-5,1-diyl))bis(4,4,4-trifluoro-3,3-dimethyl-1-oxobutane-1,2-diyl))dicarbamate] was tested, and the EC50 was 5.2 nM. In the case of `COC[C@H]1C[C@@H](c2nc(Cl)c(-c3cc4c5c(c3)OCc3cc(-c6[nH]c([C@@H]7C[C@H](COC)CN7C(=O)[C@@H](NC(=O)OC)C(C)C)nc6Cl)cc(c3-5)OC4)[nH]2)N(C(=O)[C@@H](NC(=O)OC)C(C)C)C1` [Compound 45, dimethyl ((2S,2′S)-((3S,3′S,5S,5′S)-((5,10-dihydrochromeno[5,4,3-cde]chromene-2,7-diyl)bis(4-chloro-1H-imidazole-5,2-diyl))bis(3-(methoxymethyl)pyrrolidine-5,1-diyl))bis(3-methyl-1-oxobutane-1,2-diyl))dicarbamate], the EC50 is reported as 19.3 nM. `COC(=O)N[C@H](C(=O)N1C[C@H](C)C[C@H]1c1nc(Cl)c(-c2cc3c4c(c2)OCc2cc(-c5[nH]c([C@@H]6C[C@@H](C)CN6C(=O)[C@@H](NC(=O)OC)C(C)C)nc5Cl)cc(c2-4)OC3)[nH]1)C(C)C` [Compound 1, dimethyl ((2S,2′S)-((3R,3′R,5S,5′S)-((5,10-dihydrochromeno[5,4,3-cde]chromene-2,7-diyl)bis(4-chloro-1H-imidazole-5,2-diyl))bis(3-methylpyrrolidine-5,1-diyl))bis(3-methyl-1-oxobutane-1,2-diyl))dicarbamate] gave an EC50 of 4.2 nM. With `CC(C)[C@H](NC(=O)C1CC1)C(=O)N1CCC[C@H]1c1nc(Cl)c(-c2cc3c4c(c2)OCc2cc(-c5[nH]c([C@@H]6CCCN6C(=O)[C@@H](NC(=O)C6CC6)C(C)C)nc5Cl)cc(c2-4)OC3)[nH]1` [Compound 25, N,N′-((2S,2′S)-((2S,2′S)-((5,10-dihydrochromeno[5,4,3-cde]chromene-2,7-diyl)bis(4-chloro-1H-imidazole-5,2-diyl))bis(pyrrolidine-2,1-diyl))bis(3-methyl-1-oxobutane-1,2-diyl))dicyclopropanecarboxamide] the EC50 was 21.9 nM. `CC[C@H](C)[C@H](NC(=O)OC)C(=O)N1C[C@@H](OC)C[C@H]1c1nc(Cl)c(-c2cc3c4c(c2)OCc2cc(-c5[nH]c([C@@H]6C[C@H](OC)CN6C(=O)[C@@H](NC(=O)OC)[C@@H](C)CC)nc5Cl)cc(c2-4)OC3)[nH]1` [Compound 5, dimethyl ((2S,2′S,3S,3′S)-((3S,3′S,5S,5′S)-((5,10-dihydrochromeno[5,4,3-cde]chromene-2,7-diyl)bis(4-chloro-1H-imidazole-5,2-diyl))bis(3-methoxypyrrolidine-5,1-diyl))bis(3-methyl-1-oxopentane-1,2-diyl))dicarbamate] was tested, and the EC50 was 12.4 nM. In the case of `COC(=O)N[C@H](C(=O)N1[C@H](c2nc(Cl)c(-c3cc4c5c(c3)OCc3cc(-c6[nH]c([C@@H]7C[C@@H]8C[C@@H]8N7C(=O)[C@@H](NC(=O)OC)C(C)C)nc6Cl)cc(c3-5)OC4)[nH]2)C[C@@H]2C[C@@H]21)C(C)C` [Compound 10, dimethyl ((2S,2′S)-((1S,1′S,3S,3′S,5S,5′S)-((5,10-dihydrochromeno[5,4,3-cde]chromene-2,7-diyl)bis(4-chloro-1H-imidazole-5,2-diyl))bis(2-azabicyclo[3.1.0]hexane-3,2-diyl))bis(3-methyl-1-oxobutane-1,2-diyl))dicarbamate], the EC50 is reported as 7 nM. With `COC(=O)N[C@H](C(=O)N1C[C@@H](C)C[C@H]1c1nc(Cl)c(-c2cc3c4c(c2)OCc2cc(-c5[nH]c([C@@H]6C[C@H](C)CN6C(=O)[C@@H](NC(=O)OC)C(C)C)nc5Cl)cc(c2-4)OC3)[nH]1)C(C)C` [Compound 48, dimethyl ((2S,2′S)-((3S,3′S,5S,5′S)-((5,10-dihydrochromeno[5,4,3-cde]chromene-2,7-diyl)bis(4-chloro-1H-imidazole-5,2-diyl))bis(3-methylpyrrolidine-5,1-diyl))bis(3-methyl-1-oxobutane-1,2-diyl))dicarbamate] the EC50 was 4.6 nM. With `COC(=O)N[C@H](C(=O)N1C[C@@H](OC)C[C@H]1c1nc(Cl)c(-c2cc3c4c(c2)OCc2cc(-c5[nH]c([C@@H]6C[C@H](OC)CN6C(=O)[C@@H](NC(=O)OC)C(C)C)nc5Cl)cc(c2-4)OC3)[nH]1)C(C)C` [Compound 4, dimethyl ((2S,2′S)-((3S,3′S,5S,5′S)-((5,10-dihydrochromeno[5,4,3-cde]chromene-2,7-diyl)bis(4-chloro-1H-imidazole-5,2-diyl))bis(3-methoxypyrrolidine-5,1-diyl))bis(3-methyl-1-oxobutane-1,2-diyl))dicarbamate] the EC50 was 19.2 nM. `CC[C@H](C)[C@H](NC(=O)OC)C(=O)N1CC2(CC2)C[C@H]1c1nc(Cl)c(-c2cc3c4c(c2)OCc2cc(-c5[nH]c([C@@H]6CC7(CC7)CN6C(=O)[C@@H](NC(=O)OC)[C@@H](C)CC)nc5Cl)cc(c2-4)OC3)[nH]1` [Compound 60, dimethyl ((2S,2′S,3S,3′S)-((6S,6′S)-((5,10-dihydrochromeno[5,4,3-cde]chromene-2,7-diyl)bis(4-chloro-1H-imidazole-5,2-diyl))bis(5-azaspiro[2.4]heptane-6,5-diyl))bis(3-methyl-1-oxopentane-1,2-diyl))dicarbamate] gave an EC50 of 1.7 nM.
